According to ChEMBL document CHEMBL1201862, “PubChem BioAssay data set” (2004):
Activity calls are given as the source filed them.

Key:
[1] = test system: BJ; assay: BJ-TERT-LT-ST fibroblast viability loss – cell-based, RAS-independent, luminescence, dose response (AID 1935); type: functional; settings: Homo sapiens;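 note: BJ fibroblasts immortalized with TERT plus LT and ST oncogenes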
[2] = molecular target: Luciferin 4-monooxygenase (Photinus pyralis, UniProt P08659); assay: inhibition of purified Photinus pyralis luciferase – biochemical, luminescence, dose response (AID 1891)
[3] = blockers of HIV-1 envelope-mediated cell-cell fusion – cherry-pick, dose response (AID 652057); type: functional, cell-based
[4] = HIV-1 AD8 envelope cell-cell fusion blockers – cherry-pick, dose response (AID 652062); type: functional, cell-based;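 note: luciferase signal from cell-cell fusion driven by HIV-1 clade B AD8 Env; potency is for inhibitors of fusion seen as a drop in luminescence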
[5] = Luminescence Cell-Based Dose Confirmation HTS to Identify Inhibitors of Platelet Dense Granule Release. [Related pubchem assays: 1663 (Primary HTS), 1678 (Summary of Project)]; type: functional
[6] = test system: BJ; assay: cells; type: functional, cell-based; settings: Homo sapiens
[7] = test system: BJ; assay: BJ-TERT fibroblast viability loss – cell-based, RAS-independent, luminescence, dose response (AID 1933); type: functional; settings: Homo sapiens
[8] = A Cell Based Secondary Assay To Explore Cytotoxicity of Compounds that Sensitize Mycobacterium Tuberculosis to Beta-Lactam Antibiotics.; type: functional
[9] = off-target signal loss in HeLa-CEM21 co-culture – HeLa F-luc CTL cells, cherry-picked, counter-screen for HIV-1 Env fusion inhibitor project, dose response (AID 652040); type: functional, cell-based;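 note: potency for signal decrease marking cytotoxic or nonspecific inhibition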
[10] = viability loss in CEM21 cells – cell-based, CellTiter-Glo luminescence, cherry-picked, cytotoxicity control for viral fusion inhibitor project, dose response (AID 652042); type: functional;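 note: potency for signal decrease meaning cytotoxicity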
[11] = test system: INS1; assay: INS-1E survival protection against cytokine death – cell-based, luminescence, retest, dose response (AID 449756); type: functional; settings: Rattus norvegicus;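 note: cell death triggered by IL-1 beta plus TNF-alpha plus IFN-gamma mixture; protective hits raise ATP signal compared with cytokine alone wells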
[12] = DRD fibroblast viability loss – cell-based, non-viral oncogenic, luminescence, dose response (AID 1934); type: functional; settings: Homo sapiens
[13] = test system: BJ; assay: growth inhibition of engineered Ras-driven BJ cells – cell-based, alamar blue fluorescence, cherrypicked samples, dose response (AID 2631); type: functional; settings: Homo sapiens;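 note: confirmatory dose-response assay in RAS-dependent BJ fibroblasts engineered with TERT, LT and ST, with cytotoxicity read by fluorescence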
[14] = cytotoxicity in HEK293 background cells – cell-based, dry powder, set 2, counter-screen for EBV LMP1 inhibitor project, dose response (AID 624374); type: functional
[15] = molecular target: T1, Sentrin-specific protease 8 (Homo sapiens, UniProt Q96LD8); type: functional
T1 sequence (Q96LD8 whole entry): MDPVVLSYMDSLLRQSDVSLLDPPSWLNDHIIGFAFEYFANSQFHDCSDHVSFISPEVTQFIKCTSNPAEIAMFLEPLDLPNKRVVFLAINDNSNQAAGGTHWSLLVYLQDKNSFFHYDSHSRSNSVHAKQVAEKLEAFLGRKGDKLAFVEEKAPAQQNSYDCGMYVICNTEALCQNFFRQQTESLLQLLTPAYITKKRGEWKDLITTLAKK

[16] = molecular target: T1, Sentrin-specific protease 8; type: functional; remark: listed apart in the source
[17] = molecular target: T2, Caspase-3 (Homo sapiens, UniProt P42574); assay: Dose-response confirmation of uHTS inhibitor hits of Sentrin-Specific Protease 8 in a Caspase-3 Fluorescence assay.; type: functional
T2 sequence (P42574 whole entry): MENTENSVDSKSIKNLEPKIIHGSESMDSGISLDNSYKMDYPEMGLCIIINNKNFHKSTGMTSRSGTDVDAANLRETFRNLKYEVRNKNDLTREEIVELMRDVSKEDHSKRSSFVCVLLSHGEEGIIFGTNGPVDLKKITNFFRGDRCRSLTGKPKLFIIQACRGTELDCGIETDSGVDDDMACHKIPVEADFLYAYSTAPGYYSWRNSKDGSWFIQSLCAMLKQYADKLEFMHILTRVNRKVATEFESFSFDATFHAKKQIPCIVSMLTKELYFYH

[18] = molecular target: Mu-type opioid receptor (Homo sapiens, UniProt P35372); type: functional, cell-based;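 note: U2OS cells with beta-arrestin recruitment to OPRM1 by beta-gal complementation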
[19] = molecular target: 5-hydroxytryptamine receptor 2A (Mus musculus, UniProt P35363); type: functional, cell-based;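 note: CHO-K1 cells with tagged receptor and beta-arrestin; agonist potency measured as compound-induced activation of the receptor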
[20] = test system: HeLa; assay: viability loss in HeLa cells – cell-based, ATP luminescence, cherry-pick samples, cytotoxicity control, dose response (AID 687004); type: functional
[21] = test system: Cryptococcus neoformans; assay: PubChem AID 686997; type: functional, organism-based
[22] = molecular target: Paired box protein Pax-8 (Homo sapiens, UniProt Q06710); assay: PAX8 transcriptional activity inhibition in RMG-I – RMG-I cells, luciferase, cherry-pick, dose response (AID 687027); type: functional, cell-based;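 note: luciferase reporter driven by Pax8 target thyroperoxidase promoter measured by SteadyGlo luminescence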
[23] = test system: Cryptococcus neoformans; assay: Cryptococcus growth inhibition by alamar blue – cell lysis, cherry-picks, replicate tests, mechanism study for C. neoformans antifungal project, dose response (AID 686999); type: functional, organism-based
[24] = HEK293 Cytotoxicity Assay Measured in Cell-Based System Using Plate Reader - 7071-01_Inhibitor_Dose_CherryPick_Activity_Set2.; type: functional
[25] = test system: HEK293; assay: viability loss in HEK293T cells – cell-based, ATP luminescence, cherry-pick samples, cytotoxicity control, dose response (AID 687005); type: functional; settings: Homo sapiens;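 note: cells exposed to compound for 48 hours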

Paired box protein Pax-8, sequence (Q06710 whole entry): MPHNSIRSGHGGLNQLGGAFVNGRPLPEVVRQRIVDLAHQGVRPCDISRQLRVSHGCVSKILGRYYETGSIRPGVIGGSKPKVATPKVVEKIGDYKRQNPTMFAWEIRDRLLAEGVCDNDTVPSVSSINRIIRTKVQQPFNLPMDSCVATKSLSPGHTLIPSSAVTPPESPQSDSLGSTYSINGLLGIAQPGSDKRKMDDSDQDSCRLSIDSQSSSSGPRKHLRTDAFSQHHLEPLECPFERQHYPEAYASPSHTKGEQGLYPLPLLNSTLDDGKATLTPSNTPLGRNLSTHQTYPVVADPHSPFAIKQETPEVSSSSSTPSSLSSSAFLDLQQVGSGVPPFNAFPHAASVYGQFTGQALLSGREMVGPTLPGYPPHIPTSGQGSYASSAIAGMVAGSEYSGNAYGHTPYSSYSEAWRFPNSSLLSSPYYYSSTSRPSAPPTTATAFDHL
Mu-type opioid receptor, sequence (P35372 whole entry): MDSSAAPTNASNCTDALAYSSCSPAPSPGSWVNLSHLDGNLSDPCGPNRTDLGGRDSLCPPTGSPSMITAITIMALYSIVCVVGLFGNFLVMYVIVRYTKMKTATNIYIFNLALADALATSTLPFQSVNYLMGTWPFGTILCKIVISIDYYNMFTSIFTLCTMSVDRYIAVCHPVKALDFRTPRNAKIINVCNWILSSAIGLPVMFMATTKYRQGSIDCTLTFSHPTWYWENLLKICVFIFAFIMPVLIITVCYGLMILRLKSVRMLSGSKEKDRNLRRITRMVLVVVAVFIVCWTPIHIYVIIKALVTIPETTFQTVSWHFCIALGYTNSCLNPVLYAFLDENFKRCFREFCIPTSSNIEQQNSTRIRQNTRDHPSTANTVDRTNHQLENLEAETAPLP
5-hydroxytryptamine receptor 2A, sequence (P35363 whole entry): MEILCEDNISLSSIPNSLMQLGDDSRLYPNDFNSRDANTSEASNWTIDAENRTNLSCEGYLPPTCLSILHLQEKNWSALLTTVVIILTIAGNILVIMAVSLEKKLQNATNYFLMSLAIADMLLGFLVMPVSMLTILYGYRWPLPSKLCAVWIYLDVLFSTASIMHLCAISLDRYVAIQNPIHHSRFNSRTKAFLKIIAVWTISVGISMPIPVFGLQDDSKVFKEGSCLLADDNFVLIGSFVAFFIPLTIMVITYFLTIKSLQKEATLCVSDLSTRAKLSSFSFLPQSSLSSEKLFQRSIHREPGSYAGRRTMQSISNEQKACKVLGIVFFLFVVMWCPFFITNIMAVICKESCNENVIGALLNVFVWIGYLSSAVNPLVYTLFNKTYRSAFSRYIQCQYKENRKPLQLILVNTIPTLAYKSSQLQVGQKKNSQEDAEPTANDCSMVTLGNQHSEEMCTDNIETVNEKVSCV
Luciferin 4-monooxygenase, sequence (P08659 whole entry, the tested form may be a part): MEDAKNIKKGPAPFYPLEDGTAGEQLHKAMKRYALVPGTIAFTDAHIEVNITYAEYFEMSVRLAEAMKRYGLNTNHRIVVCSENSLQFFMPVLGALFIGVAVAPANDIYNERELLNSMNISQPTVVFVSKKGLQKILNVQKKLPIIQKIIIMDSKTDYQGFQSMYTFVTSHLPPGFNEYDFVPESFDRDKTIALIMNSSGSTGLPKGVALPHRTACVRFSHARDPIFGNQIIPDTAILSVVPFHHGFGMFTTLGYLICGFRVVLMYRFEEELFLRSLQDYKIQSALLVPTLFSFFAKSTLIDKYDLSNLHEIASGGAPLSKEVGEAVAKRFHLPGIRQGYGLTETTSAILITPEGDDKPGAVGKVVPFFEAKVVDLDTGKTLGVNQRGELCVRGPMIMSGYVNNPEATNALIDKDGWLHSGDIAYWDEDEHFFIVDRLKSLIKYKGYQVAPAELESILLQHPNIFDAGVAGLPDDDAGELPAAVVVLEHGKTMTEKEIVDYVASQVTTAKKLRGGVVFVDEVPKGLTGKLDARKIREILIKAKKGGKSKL

## O=C(Nc1nc2ccccc2[nH]1)c1ccccc1F
[1]
  EC50: 6.85 µM (inconclusive)
[2]
  EC50: 1.19 µM (active)
[3]
  AC50: 3.82 µM (active)
[4]
  AC50: 6.17 µM (active)
[5]
  EC50: 1.13 µM (active)
[6]
  EC50: 2.23 µM (active)
[7]
  EC50: 2.44 µM (active)
[8]
  CC50: 8.56 µM (active)
[9]
  AC50: 6.83 µM (active)
[10]
  AC50: 5.17 µM (active)
[11]
  AC50: 3.06 µM (active)
[12]
  EC50: 1.86 µM (active)
[13]
  EC50: > 133 µM (inactive)

## O=C(Cc1ccccn1)NCC[C@@H]1CC[C@H](NC(=O)Nc2ccc(Cl)cc2)[C@H](CO)O1
[14]
  AbsAC35: 154.48 µM

## O=C1/C(=C/NCCc2ccccc2)c2ccccc2C(=O)N1Cc1ccccc1
[15]
  IC50: 10.9 µM (active)
[16]
  IC50: 4.54 µM (active)
[17]
  IC50: 83.2 µM (inactive)

## Cc1cccc(CN2CCN(c3ncccn3)CC2)c1
[18]
  EC50: 92.5 µM (inactive)
[19]
  EC50: 0.182 µM (active)

## CC[C@H](C)[C@@H]1NC(=O)CNC(=O)c2csc(n2)[C@H](C(C)(C)O)OC(=O)C(C)(C)[C@H](CCCC(C)(Cl)Cl)OC(=O)c2csc1n2 [LYNGBYABELLIN A]
[20]; Homo sapiens
  AC50: < 0.195 µM (active)
[21]; Cryptococcus neoformans
  AC50: 2.72 µM (active)
[22]
  AC50: < 0.26 µM (active)
[23]
  AC50: 2.1 µM (active)

## COC(=O)C1=C(C)N(CC(C)C)C(=S)NC1c1ccc(-c2ccccc2)cc1 (stereo not given)
[20]
  AC50: > 52 µM (inactive)
[20]; Homo sapiens
  AC50: 42 µM (active)
[21]
  AC50: 23.6 µM (active)
[21]; Cryptococcus neoformans
  AC50: 15.6 µM (active)
[24]
  AC50: 20.4 µM (active)
[25]
  AC50: 20.4 µM (active)
[23]
  AC50: 51.6 µM (active)
